# Measurements: patent US10005767B2, “Compositions and methods for inhibition of the JAK pathway” (Rigel Pharmaceuticals, Inc., priority 2009, dated 2018)
# pIC50: −log10 of the molar value.
# Test system: human primary T-cells, IL-2 stimulated proliferation (JAK-1 and JAK-3 dependent; reported as JAK3 activity)
# Test: Human primary T-cell proliferation stimulated by IL-2 (Example 3)
# Type: cell-based
# Conditions: Homo sapiens, T-cell, tested under conditions described in Example 3 (IL-2 stimulated human primary T-cell proliferation); read-out: ability to inhibit JAK3 activity, IC50 range (Table V)
# In short: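 Peripheral-blood human T-cells pre-activated via TCR/CD28, IL-2-starved overnight, then cultured 72 h at 37 °C with compound in Yssel's medium containing IL-2 (80 U/mL in cell suspension). Proliferation read as viable-cell ATP by CellTiter-Glo luminescence; reduction versus control taken as JAK pathway inhibition.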
row,Compound,pIC50
1,"Cc1cnc(Nc2ccc(N3CC4(C)CN(C)CC(C)(C3)C4)nc2)nc1Nc1ccc2oc(=O)[nH]c2c1 [II-117, 5-methyl-N4-(2-oxo-2,3-dihydro-1,3-benzoxazol-5-yl)-N2-[2-(1,3,5-trimethyl-3,7-diazabicyclo[3.3.1]nonan-7-yl)pyridin-5-yl]-2,4-pyrimidinediamine]",> 6.30
2,"CCN1CC2CN(c3ncc(Nc4ncc(C)c(Nc5ccc6oc(=O)[nH]c6c5)n4)cc3Cl)CC2C1 (stereo not shown) [II-118, N2-[3-chloro-2-(3-ethyl-3,7-diazabicyclo[3.3.0]octan-7-yl)pyridin-5-yl]-5-methyl-N4-(2-oxo-2,3-dihydro-1,3-benzoxazol-5-yl)-2,4-pyrimidinediamine]",> 6.30
3,"CCN1CC2CN(c3ncc(Nc4ncc(C)c(Nc5ccc6oc(=O)[nH]c6c5)n4)cc3C(F)(F)F)CC2C1 (stereo not shown) [II-119, N2-[2-(3-ethyl-3,7-diazabicyclo[3.3.0]octan-7-yl)-3-trifluoromethylpyridin-5-yl]-5-methyl-N4-(2-oxo-2,3-dihydro-1,3-benzoxazol-5-yl)-2,4-pyrimidinediamine]",> 6.30
4,"Cc1cnc(Nc2ccc(N3CC4CN(C)CC4C3)nc2)nc1Nc1ccc2oc(=O)[nH]c2c1 (stereo not shown) [II-120, 5-methyl-N2-[2-(3-methyl-3,7-diazabicyclo[3.3.0]octan-7-yl)pyridin-5-yl]-N4-(2-oxo-2,3-dihydro-1,3-benzoxazol-5-yl)-2,4-pyrimidinediamine]",> 6.30
5,"Cc1cnc(Nc2ccc(C3NCC4CCCCC43)nc2)nc1Nc1ccc2oc(=O)[nH]c2c1 (stereo not shown) [II-121, 5-methyl-N2-[2-(octahydroisoindol-1-yl)pyridin-5-yl]-N4-(2-oxo-2,3-dihydro-1,3-benzoxazol-5-yl)-2,4-pyrimidinediamine]",> 6.30
6,"Cc1cnc(Nc2cnc(C3NCC4CCCCC43)c(Cl)c2)nc1Nc1ccc2oc(=O)[nH]c2c1 (stereo not shown) [II-122, N2-[3-chloro-2-(octahydroisoindol-1-yl)pyridin-5-yl]-5-methyl-N4-(2-oxo-2,3-dihydro-1,3-benzoxazol-5-yl)-2,4-pyrimidinediamine]",> 6.30
7,"COc1ccc(Nc2ncc(C)c(Nc3ccc4oc(=O)[nH]c4c3)n2)cn1 [II-123, N2-(2-methoxypyridin-5-yl)-5-methyl-N4-(2-oxo-2,3-dihydro-1,3-benzoxazol-5-yl)-2,4-pyrimidinediamine]",> 6.30
8,"C=C1C[C@@H](O)CN1c1ccc(Nc2ncc(C)c(Nc3ccc4oc(=O)[nH]c4c3)n2)cn1 [II-126, N2-[2-(4R-hydroxy-2-methylidene-pyrrolidin-1-yl)pyridin-5-yl]-5-methyl-N4-(2-oxo-2,3-dihydro-1,3-benzoxazol-5-yl)-2,4-pyrimidinediamine]",5.30 to 6.30
9,"Cc1cnc(Nc2ccc(N3C[C@@H](C)N(C)[C@@H](C)C3)nc2)nc1Nc1ccc2oc(=O)[nH]c2c1 [II-127, 5-methyl-N4-(2-oxo-2,3-dihydro-1,3-benzoxazol-5-yl)-N2-[2-(cis-3,4,5-trimethylpiperazino)pyridin-5-yl]-2,4-pyrimidinediamine]",> 6.30
10,"Cc1cnc(Nc2ccc(N3C[C@@H](C)N[C@@H](C)C3)nc2)nc1Nc1ccc2oc(=O)[nH]c2c1 [II-131, N2-[2-(cis-3,5-dimethylpiperazino)pyridin-5-yl]-5-methyl-N4-(2-oxo-2,3-dihydro-1,3-benzoxazol-5-yl)-2,4-pyrimidinediamine]",> 6.30
11,"Cc1cnc(Nc2ccc(N3CCC4(CCN(C)C4)C3)nc2)nc1Nc1ccc2oc(=O)[nH]c2c1 (stereo not shown) [II-133, 5-methyl-N2-[2-(7-methyl-2,7-diazaspiro[4.4]nonan-2-yl)pyridin-5-yl]-N4-(2-oxo-2,3-dihydro-1,3-benzoxazol-5-yl)-2,4-pyrimidinediamine]",> 6.30
12,"Cc1cnc(Nc2ccc(N3CCO[C@H](C)C3)nc2)nc1Nc1ccc2oc(=O)[nH]c2c1 [II-135, 5-methyl-N2-[2-(2R-methylmorpholino)pyridin-5-yl]-N4-(2-oxo-2,3-dihydro-1,3-benzoxazol-5-yl)-2,4-pyrimidinediamine]",> 6.30
13,"Cc1cnc(Nc2ccc(N3CCN(C(C)C)CC3)nc2)nc1Nc1ccc2oc(=O)[nH]c2c1 [II-136, N2-[2-(4-isopropylpiperazino)pyridin-5-yl]-5-methyl-N4-(2-oxo-2,3-dihydro-1,3-benzoxazol-5-yl)-2,4-pyrimidinediamine]",> 6.30
14,"Cc1cnc(Nc2ccc(N3C[C@H]4C[C@@H]3CO4)nc2)nc1Nc1ccc2oc(=O)[nH]c2c1 [II-139, 5-methyl-N2-{2-[(1R,4R)-2-oxa-5-azabicyclo[2.2.1]heptan-5-yl]pyridin-5-yl}-N4-(2-oxo-2,3-dihydro-1,3-benzoxazol-5-yl)-2,4-pyrimidinediamine]",> 6.30
15,"COc1cc(Nc2ncc(C)c(Nc3ccc4oc(=O)[nH]c4c3)n2)cnc1OC [II-140, N2-(2,3-dimethoxypyridin-5-yl)-5-methyl-N4-(2-oxo-2,3-dihydro-1,3-benzoxazol-5-yl)-2,4-pyrimidinediamine]",> 6.30
16,"COc1ncc(Nc2ncc(C)c(Nc3ccc4oc(=O)[nH]c4c3)n2)cc1C [II-141, N2-(2-methoxy-3-methylpyridin-5-yl)-5-methyl-N4-(2-oxo-2,3-dihydro-1,3-benzoxazol-5-yl)-2,4-pyrimidinediamine]",> 6.30
17,"Cc1cc(N2CCN(C)CC2)ncc1Nc1ncc(C)c(Nc2ccc3oc(=O)[nH]c3c2)n1 [II-143, N2-[4-methyl-2-(4-methylpiperazino)pyridin-5-yl]-5-methyl-N4-(2-oxo-2,3-dihydro-1,3-benzoxazol-5-yl)-2,4-pyrimidinediamine]",5.30 to 6.30
18,"Cc1cnc(Nc2ccc(OC(C)C)nc2)nc1Nc1ccc2oc(=O)[nH]c2c1 [II-144, N2-(2-isopropoxypyridin-5-yl)-5-methyl-N4-(2-oxo-2,3-dihydro-1,3-benzoxazol-5-yl)-2,4-pyrimidinediamine]",> 6.30
19,"COc1ncc(Nc2ncc(C)c(Nc3ccc4oc(=O)[nH]c4c3)n2)cc1C(F)(F)F [II-147, N2-(2-methoxy-3-trifluoromethylpyridin-5-yl)-5-methyl-N4-(2-oxo-2,3-dihydro-1,3-benzoxazol-5-yl)-2,4-pyrimidinediamine]",> 6.30

# Same assay, conditions: tested under conditions described in Example 3 (IL-2 stimulated human primary T-cell proliferation); read-out: ability to inhibit JAK3 activity, IC50 range (Table V)
row,Compound,pIC50
1,"Cc1cnc(Nc2cnc(N3CCN4CCC[C@H]4C3)c(C(F)(F)F)c2)nc1Nc1ccc2oc(=O)[nH]c2c1 [II-124, N2-[2-(S-1,4-diazabicylco[4.3.0]nonan-4-yl)-3-trifluoromethylpyridin-5-yl]-5-methyl-N4-(2-oxo-2,3-dihydro-1,3-benzoxazol-5-yl)-2,4-pyrimidinediamine]",> 6.30
2,"Cc1cnc(Nc2cnc(N3CCN4CCC3CC4)c(F)c2)nc1Nc1ccc2oc(=O)[nH]c2c1 [II-125, N2-[2-(1,4-diazabicylco[3.2.2]nonan-4-yl)-3-fluoropyridin-5-yl]-5-methyl-N4-(2-oxo-2,3-dihydro-1,3-benzoxazol-5-yl)-2,4-pyrimidinediamine]",> 6.30
3,"Cc1cnc(Nc2ccc(N3CCN4CCCCC4C3)nc2)nc1Nc1ccc2oc(=O)[nH]c2c1 (stereo not shown) [II-128, N2-[2-(1,4-diazabicylco[4.4.0]decan-4-yl)pyridin-5-yl]-5-methyl-N4-(2-oxo-2,3-dihydro-1,3-benzoxazol-5-yl)-2,4-pyrimidinediamine]",> 6.30
4,"Cc1cnc(Nc2ccc(N3CCN4CCC[C@@H]4C3)nc2)nc1Nc1ccc2oc(=O)[nH]c2c1 [II-132, N2-[2-(R-1,4-diazabicylco[4.3.0]nonan-4-yl)pyridin-5-yl]-5-methyl-N4-(2-oxo-2,3-dihydro-1,3-benzoxazol-5-yl)-2,4-pyrimidinediamine]",> 6.30
5,"Cc1cnc(Nc2ccc(N3CCOC[C@@H]3C)nc2)nc1Nc1ccc2oc(=O)[nH]c2c1 [II-134, 5-methyl-N2-[2-(3 S-methylmorpholino)pyridin-5-yl]-N4-(2-oxo-2,3-dihydro-1,3-benzoxazol-5-yl)-2,4-pyrimidinediamine]",> 6.30
6,"Cc1cnc(Nc2ccc(N3C4CCC3CC(N(C)C)C4)nc2)nc1Nc1ccc2oc(=O)[nH]c2c1 (stereo not shown) [II-137, N2-[2-(3-N,N-dimethylamino-8-azabicyclo[3.2.1]octan-8-yl)pyridin-5-yl]-5-methyl-N4-(2-oxo-2,3-dihydro-1,3-benzoxazol-5-yl)-2,4-pyrimidinediamine]",> 6.30
7,"Cc1cnc(Nc2ccc(N3CCOC(C)C3)nc2)nc1Nc1ccc2oc(=O)[nH]c2c1 (stereo not drawn) [II-138, 5-methyl-N2-[2-(2S-methylmorpholino)pyridin-5-yl]-N4-(2-oxo-2,3-dihydro-1,3-benzoxazol-5-yl)-2,4-pyrimidinediamine]",> 6.30
8,"Cc1cnc(Nc2ccc(OCCO)nc2)nc1Nc1ccc2oc(=O)[nH]c2c1 [II-142, N2-[2-(2-hydroxy)ethoxypyridin-5-yl]-5-methyl-N4-(2-oxo-2,3-dihydro-1,3-benzoxazol-5-yl)-2,4-pyrimidinediamine]",> 6.30
9,"COCCOc1ccc(Nc2ncc(C)c(Nc3ccc4oc(=O)[nH]c4c3)n2)cn1 [II-145, N2-[2-(2-methoxy)ethoxypyridin-5-yl]-5-methyl-N4-(2-oxo-2,3-dihydro-1,3-benzoxazol-5-yl)-2,4-pyrimidinediamine]",> 6.30
10,"Cc1cnc(Nc2ccc(OC(C)(C)C(N)=O)nc2)nc1Nc1ccc2oc(=O)[nH]c2c1 [II-146, N2-[2-(1-aminocarbonyl-1-methyl)ethoxypyridin-5-yl]-5-methyl-N4-(2-oxo-2,3-dihydro-1,3-benzoxazol-5-yl)-2,4-pyrimidinediamine]",> 6.30
11,"Cc1cnc(Nc2ccc(OCCCO)nc2)nc1Nc1ccc2oc(=O)[nH]c2c1 [II-148, N2-[2-(3-hydroxy)propoxypyridin-5-yl]-5-methyl-N4-(2-oxo-2,3-dihydro-1,3-benzoxazol-5-yl)-2,4-pyrimidinediamine]",5.30 to 6.30
12,"COCCCOc1ccc(Nc2ncc(C)c(Nc3ccc4oc(=O)[nH]c4c3)n2)cn1 [II-149, N2-[2-(3-methoxy)propoxypyridin-5-yl]-5-methyl-N4-(2-oxo-2,3-dihydro-1,3-benzoxazol-5-yl)-2,4-pyrimidinediamine]",> 6.30
